Test results as given in patent publication US9266876B2 (Actelion Pharmaceuticals Ltd., priority 2012, dated 2016).

Molecular target: CXCR3 (Homo sapiens (Human), UniProt P49682)
Test: Receptor internalization assay
Type: cell-based
Settings: human whole blood; final CXCL10 concentration 9 nM; 30 min 37° C.; CXCR3 cell surface expression on CD3 positive cells, flow cytometer; read-out: Internalization IC50
Method: B): Receptor Internalization Assay:
Stock solutions of test compounds are made up at a concentration of 10 mM in DMSO, and serially diluted in PBS containing 0.5% BSA to concentrations required for inhibition dose response curves. Diluted compounds are then mixed with an equal volume of CXCL10 (Peprotech) diluted in PBS. Anticoagulated venous human whole blood is added to the mixture, which is then incubated in a CO2 incubator at 37° C. to allow for ligand mediated receptor internalization (final CXCL10 concentration is 9 nM). After 30′, the blood is mixed with fluorescently labeled CXCR3 and CD3 specific antibodies (Becton Dickinson) and incubated on ice for 10 minutes. Samples are then mixed with BD FACS Lysing Solution (Becton Dickinson) in order to eliminate red blood cells. After washing the cells with PBS containing 0.5% BSA, the samples are then analyzed in a flow cytometer (FACS Canto II, Becton Dickinson). For data analysis using FACSDiva software (Becton Dickinson), the mean fluorescence corresponding to CXCR3 cell surface expression was determined on CD3 positive cells. The program GraphPad Prism is used to fit the data to a single site dose response curve and to calculate IC50 values.

Chain of CXCR3 (P49682 whole entry): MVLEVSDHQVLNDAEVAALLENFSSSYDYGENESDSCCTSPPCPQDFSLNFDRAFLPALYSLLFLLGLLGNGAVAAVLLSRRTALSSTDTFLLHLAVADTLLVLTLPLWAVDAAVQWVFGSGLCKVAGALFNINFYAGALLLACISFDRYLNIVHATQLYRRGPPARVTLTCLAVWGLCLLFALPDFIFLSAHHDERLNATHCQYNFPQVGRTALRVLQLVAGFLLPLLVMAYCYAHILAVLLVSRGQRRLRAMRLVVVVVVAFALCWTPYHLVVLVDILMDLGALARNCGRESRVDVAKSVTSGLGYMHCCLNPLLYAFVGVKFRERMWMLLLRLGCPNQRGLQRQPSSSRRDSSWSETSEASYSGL

IC50 [nM] | SMILES
4090 | CC(O)c1nc(-c2nc3ccccc3[nH]2)c(N2CCN(C(=O)Cn3ccc4cccnc43)CC2)s1 (racemic) [Example 43, rac-1-{4-[4-(1H-Benzoimidazol-2-yl)-2-(1-hydroxy-ethyl)-thiazol-5-yl]-piperazin-1-yl}-2-pyrrolo[2,3-b]pyridin-1-yl-ethanone]

Molecular target: human CXCR3A (Homo sapiens (Human), UniProt P49682)
Test: FLIPR assay
Type: cell-based
Settings: CHO-K1 cells expressing the human CXCR3A coupled to Galpha(16); CXCL10 agonist 20 nM; Fluo-4-AM fluorescence; mean values if determined several times
Method: The bioactivity of compounds is tested in a fluorometric imaging plate reader (FLIPR: Molecular Devices) using engineered CHO-K1 cells expressing the human CXCR3A coupled to a G protein (Galpha(16)). Cells are plated the day prior to bioassay in F12 medium supplemented with 10% FBS and G418 and hygromycin antibiotics to maintain recombinant selection. At the day of bioassay, cells are washed and dye loaded for one hour with Fluo-4-AM (Invitrogen) in Hanks Balanced Salt Solution (Invitrogen), buffered with 20 mM Hepes at pH 7.4 and sodium bicarbonate (0.015%), containing 5 mM probenecid. […] Cells are washed free of excess dye and 60 microliter of wash buffer is added. Stock solutions of test compounds are made up at a concentration of 10 mM in DMSO, and serially diluted in dilution buffer to concentrations required for inhibition dose response curves. After a 10 minute incubation period at 37° C., 10 microliters of each compound dilution are transferred from a compound plate to the plate containing the recombinant cells in the FLIPR instrument according to the manufacturer's instructions. Following basal readings, 10 microliter CXCL10 agonist at a concentration of 20 nM (from Peprotech) is added, again using the FLIPR instrument. Changes in fluorescence are monitored before and after addition of the test compounds. Emission peak values above base level after CXCL10 addition are exported after base line subtraction. The program XLfit is used to fit the data to a single site dose response curve and to calculate IC50 values.

Chain of human CXCR3A (P49682 whole entry): as above

IC50 [nM] | SMILES
55 | CC(O)c1nc(-c2nc3ccccc3[nH]2)c(N2CCN(C(=O)Cn3ccc4cccnc43)CC2)s1 (racemic) [Example 43, rac-1-{4-[4-(1H-Benzoimidazol-2-yl)-2-(1-hydroxy-ethyl)-thiazol-5-yl]-piperazin-1-yl}-2-pyrrolo[2,3-b]pyridin-1-yl-ethanone]
280 | COc1ccc(CC(=O)N2CCN(c3scnc3-c3nc4ccccc4[nH]3)CC2)c(F)c1 [Example 111, 1-{4-[4-(1H-Benzoimidazol-2-yl)-thiazol-5-yl]-piperazin-1-yl}-2-(2-fluoro-4-methoxy-phenyl)-ethanone]
10 | Cn1c(=O)n(CC(=O)N2CCN(c3scnc3-c3nc4c(O)cccc4[nH]3)CC2)c2ccccc21 [Example 112, 1-(2-{4-[4-(4-Hydroxy-1H-benzoimidazol-2-yl)-thiazol-5-yl]-piperazin-1-yl}-2-oxo-ethyl)-3-methyl-1,3-dihydro-benzoimidazol-2-one]
75 | C[C@@H]1CN(c2scnc2-c2nc3ccccc3[nH]2)CCN1C(=O)Cc1ccc2ccccc2c1 [Example 117, 1-{(R)-4-[4-(1H-Benzoimidazol-2-yl)-thiazol-5-yl]-2-methyl-piperazin-1-yl}-2-naphthalen-2-yl-ethanone]
16 | C[C@@H]1CN(c2scnc2-c2nc3ccccc3[nH]2)CCN1C(=O)Cc1ccc2cccnc2c1 [Example 120, 1-{(R)-4-[4-(1H-Benzoimidazol-2-yl)-thiazol-5-yl]-2-methyl-piperazin-1-yl}-2-quinolin-7-yl-ethanone]
42 | C[C@@H]1CN(c2scnc2-c2nc3ccccc3[nH]2)CCN1C(=O)Cc1ccc2nccnc2c1 [Example 121, 1-{(R)-4-[4-(1H-Benzoimidazol-2-yl)-thiazol-5-yl]-2-methyl-piperazin-1-yl}-2-quinoxalin-6-yl-ethanone]
152 | C[C@@H]1CN(c2scnc2-c2nc3ccccc3[nH]2)CCN1C(=O)Cc1ccc2c(c1)NC(=O)CO2 [Example 122, 6-(2-{(R)-4-[4-(1H-Benzoimidazol-2-yl)-thiazol-5-yl]-2-methyl-piperazin-1-yl}-2-oxo-ethyl)-4H-benzo[1,4]oxazin-3-one]
69 | C[C@@H]1CN(c2scnc2-c2nc3ccccc3[nH]2)CCN1C(=O)Cc1cccc2[nH]ccc12 [Example 123, 1-{(R)-4-[4-(1H-Benzoimidazol-2-yl)-thiazol-5-yl]-2-methyl-piperazin-1-yl}-2-(1H-indol-4-yl)-ethanone]
10 | C[C@@H]1CN(c2scnc2-c2nc3ccccc3[nH]2)CCN1C(=O)Cc1c[nH]c2ccccc12 [Example 124, 1-{(R)-4-[4-(1H-Benzoimidazol-2-yl)-thiazol-5-yl]-2-methyl-piperazin-1-yl}-2-(1H-indol-3-yl)-ethanone]
71 | C[C@@H]1CN(c2scnc2-c2nc3ccccc3[nH]2)CCN1C(=O)Cc1cn(C)c2ccccc12 [Example 125, 1-{(R)-4-[4-(1H-Benzoimidazol-2-yl)-thiazol-5-yl]-2-methyl-piperazin-1-yl}-2-(1-methyl-1H-indol-3-yl)-ethanone]
68 | COc1ccc2[nH]cc(CC(=O)N3CCN(c4scnc4-c4nc5ccccc5[nH]4)C[C@H]3C)c2c1 [Example 126, 1-{(R)-4-[4-(1H-Benzoimidazol-2-yl)-thiazol-5-yl]-2-methyl-piperazin-1-yl}-2-(5-methoxy-1H-indol-3-yl)-ethanone]
490 | C[C@@H]1CN(c2scnc2-c2nc3ccccc3[nH]2)CCN1C(=O)Cc1c[nH]c2ccc(Cl)cc12 [Example 127, 1-{(R)-4-[4-(1H-Benzoimidazol-2-yl)-thiazol-5-yl]-2-methyl-piperazin-1-yl}-2-(5-chloro-1H-indol-3-yl)-ethanone]
47 | C[C@@H]1CN(c2scnc2-c2nc3ccccc3[nH]2)CCN1C(=O)Cc1c[nH]c2ccc(F)cc12 [Example 128, 1-{(R)-4-[4-(1H-Benzoimidazol-2-yl)-thiazol-5-yl]-2-methyl-piperazin-1-yl}-2-(5-fluoro-1H-indol-3-yl)-ethanone]
109 | C[C@@H]1CN(c2scnc2-c2nc3ccccc3[nH]2)CCN1C(=O)Cc1nc2cc(Cl)ccc2[nH]1 [Example 129, 1-{(R)-4-[4-(1H-Benzoimidazol-2-yl)-thiazol-5-yl]-2-methyl-piperazin-1-yl}-2-(5-chloro-1H-benzoimidazol-2-yl)-ethanone]
8 | Cc1ccc2onc(CC(=O)N3CCN(c4scnc4-c4nc5ccccc5[nH]4)C[C@H]3C)c2c1 [Example 131, 1-{(R)-4-[4-(1H-Benzoimidazol-2-yl)-thiazol-5-yl]-2-methyl-piperazin-1-yl}-2-(5-methyl-benzo[d]isoxazol-3-yl)-ethanone]
6 | C[C@@H]1CN(c2scnc2-c2nc3ccccc3[nH]2)CCN1C(=O)Cc1csc2ccccc12 [Example 133, 2-Benzo[b]thiophen-3-yl-1-{(R)-4-[4-(1H-benzoimidazol-2-yl)-thiazol-5-yl]-2-methyl-piperazin-1-yl}-ethanone]
115 | C[C@@H]1CN(c2scnc2-c2nc3ccccc3[nH]2)CCN1C(=O)Cc1csc2ccc(Cl)cc12 [Example 134, 1-{(R)-4-[4-(1H-Benzoimidazol-2-yl)-thiazol-5-yl]-2-methyl-piperazin-1-yl}-2-(5-chloro-benzo[b]thiophen-3-yl)-ethanone]
88 | COc1ccc2c(CC(=O)N3CCN(c4scnc4-c4nc5ccccc5[nH]4)C[C@H]3C)coc2c1 [Example 135, 1-{(R)-4-[4-(1H-Benzoimidazol-2-yl)-thiazol-5-yl]-2-methyl-piperazin-1-yl}-2-(6-methoxy-benzofuran-3-yl)-ethanone]
26 | C[C@@H]1CN(c2scnc2-c2nc3ccccc3[nH]2)CCN1C(=O)Cc1ccc2c(c1)CCO2 [Example 136, 1-{(R)-4-[4-(1H-Benzoimidazol-2-yl)-thiazol-5-yl]-2-methyl-piperazin-1-yl}-2-(2,3-dihydro-benzofuran-5-yl)-ethanone]
6 | C[C@@H]1CN(c2scnc2-c2nc3ccccc3[nH]2)CCN1C(=O)Cn1ccc2ncc(Cl)nc21 [Example 140, 1-{(R)-4-[4-(1H-Benzoimidazol-2-yl)-thiazol-5-yl]-2-methyl-piperazin-1-yl}-2-(3-chloro-pyrrolo[2,3-b]pyrazin-5-yl)-ethanone]
11 | C[C@@H]1CN(c2scnc2-c2nc3cc(Cl)ccc3[nH]2)CCN1C(=O)CN1CCc2ccccc21 [Example 145, 1-{(R)-4-[4-(5-Chloro-1H-benzoimidazol-2-yl)-thiazol-5-yl]-2-methyl-piperazin-1-yl}-2-(2,3-dihydro-indol-1-yl)-ethanone]
64 | C[C@@H]1CN(c2scnc2-c2nc3ccccc3[nH]2)CCN1C(=O)Cn1cccc2oc(=O)nc1-2 [Example 156, 4-(2-{(R)-4-[4-(1H-Benzoimidazol-2-yl)-thiazol-5-yl]-2-methyl-piperazin-1-yl}-2-oxo-ethyl)-4H-oxazolo[4,5-b]pyridin-2-one]
4 | C[C@@H]1CN(c2scnc2-c2nc3ccccc3[nH]2)CCN1C(=O)CN1C(=O)C(=O)c2ccccc21 [Example 157, 1-(2-{(R)-4-[4-(1H-Benzoimidazol-2-yl)-thiazol-5-yl]-2-methyl-piperazin-1-yl}-2-oxo-ethyl)-1H-indole-2,3-dione]
100 | C[C@@H]1CN(c2sc(CCC(=O)O)nc2-c2nc3ccccc3[nH]2)CCN1C(=O)Cn1ccc2cccnc21 [Example 224, 3-{4-(1H-Benzoimidazol-2-yl)-5-[(R)-3-methyl-4-(2-pyrrolo[2,3-b]pyridin-1-yl-acetyl)-piperazin-1-yl]-thiazol-2-yl}-propionic acid]
30 | Cc1nc(C)n(CC(=O)N2CCN(c3sc(C(F)(F)F)nc3-c3nc4ccc(N5CCCC5=O)cc4[nH]3)C[C@H]2C)n1 [Example 235, 1-[2-(5-{(R)-4-[2-(3,5-Dimethyl-[1,2,4]triazol-1-yl)-acetyl]-3-methyl-piperazin-1-yl}-2-trifluoromethyl-thiazol-4-yl)-3H-benzoimidazol-5-yl]-pyrrolidin-2-one]
2990 | O=C(Cn1cnc2cccnc21)N1CCN(c2ncsc2-c2nc3ccccc3[nH]2)CC1 [compound 114, 1-{4-[5-(1H-Benzoimidazol-2-yl)-thiazol-4-yl]-piperazin-1-yl}-2-imidazo[4,5-b]pyridin-3-yl-ethanone, reference compound]
